# Assay results reported in patent US7662629B2, “Peptide scaffolds for transfer of molecules into eukaryotic cells” (Trustees of the University of Pennsylvania, priority 1998, dated 2010).
# Experiments:
# confluent BAEC [1] = experiment: Total β-galactosidase expression measured fluorometrically in cell lysates; assay type: cell-based, bovine; conditions: for enhancement of β-galactosidase expression / gene transfer: lipofection; for increase in total β-galactosidase expression over transfection with plasmid alone: plasmid precomplexed with peptide, lipofectamine
# Experimental: (§1) Bovine aortic endothelial cells (BAEC) (passage<10) are grown to confluence, passed to a 6-well culture dish at a split ratio of 1:3, and then grown to confluence as described by Subramanian, A. and Diamond, S. L. Tissue Engineering 3, 39-52, 1997. Growth medium is Dulbecco's modified Eagle's medium (DMEM) containing 10% heat inactivated newborn calf serum, 0.30 mg/ml of glutamine, 150 U/ml penicillin and 0.15 mg/ml streptomycin (GIBCO, Grand Island, N.Y.). Hela cells (Hela S3 ATCC No. CCL 2.2) are grown in DMEM media (Gibco BRL) supplemented with 10% fetal calf serum as described by Ranjan, V. and Diamond, S. L. Biochem. Biophys. Res. Comm. 196, 79, 1993.
# (§2) Cationic liposomes (Lipofectamine Reagent, Gibco-BRL), containing a 3:1 by weight mixture of polycationic lipid 2,3-dioleoyloxy-N-[2(sperminecarboxamido)ethyl]-N,N-dimethyl-1 propanaminium trifluoroacetate (DOSPA) and the neutral lipid dioleoyl phosphatidylethanolamine (DOPE) was used in all transfections in accordance with procedures described by Subramanian, A. and Diamond, S. L. Tissue Engineering 3, 39-52, 1997. Pure liposome (10 μl) diluted to 100 μl are added to the DNA/scaffold complex, incubated for 45 minutes. Then 0.8 ml of OPTIMEM media is added to this mixture which is then overlaid on the cells. The cells are incubated for 2 hours at 37 ? C. After two hours, the mixture is aspirated, 4% serum in OPTIMEM media is added, and the cells are allowed to grow for 48 hours. The cells are then fixed and assayed for ? -gal activity. During the transfections, the cells are continuously monitored for cell viability and adhesion.
# To assay for ? gal to measure % transfection, cells are stained with XGAL as described by Subramanian, A. and Diamond, S. L. Tissue Engineering 3, 39-52, 1997. The percent of cells stained per field of view is counted using a Zeiss 125M inverted microscope. The count is averaged from at least 4 fields of view for each transfected monolayer. To measure ? -gal expression quantitatively, cell lysates are prepared and tested for ? -gal activity against the fluorogenic substrate, fluorescein di- ? -D-galactopyranoside (FDG, F-1179 Molecular Probes) which is not fluorescent until cleaved to fluorescein monogalactoside and then to fluorescein (excitation/emission: 494/520 nM). For flow cytometry, the trypsinized cell suspension is supplemented with serum, pelleted (100 g) and resuspended in staining medium to approximately 10^7 cells/ml. A 100 μL cell suspension is maintained at 37 ? C and 100 μl of 2 mM FDG maintained at 37 ? C is then added to the cell suspension, mixed rapidly and incubated at 37 ? C for 1 minute. The FDG loading is stopped at the end of 1 minute by adding 1.8 mL of ice-cold staining medium containing 1.5 μM Propidium Iodide and 1 mM PETG. The cells are kept on ice prior to flow cytometer analysis using a Becton Dickinson FACScan system. Unstained BAEC cells allow compensation for autofluorescence. The histogram showing fluorescence/cell to the number of cells is used to calculate the % transfection.
# confluent BAEC [2] = experiment: Flow cytometry (FDG) of confluent BAEC lipofected with pCMVβgal ± peptides; assay type: cell-based, bovine; conditions: 1 μg plasmid
# Experimental: as §1
# as §2, with “The cells are incubated for 2 hours at 37 ? C. After two hours, the mixture is aspirated, 4% serum in OPTIMEM media is added, and the cells are allowed to grow for 48 hours. The cells are then fixed and assayed for ? -gal activity.” left out, “adhesion. […]” for “adhesion.”
# plasmid = experiment: Ethidium bromide fluorescence release assay of plasmid condensation; assay type: binding; conditions: electrostatic interactions
# Description: Several different cationic scaffolds that are rich in amine suitable for conjugation reactions and which mediate electrostatic complexation or condensation with plasmid are used. These scaffolds can include: SV40 T antigen NLS (SVT=CGYGPKKKRKVGG (SEQ ID NO:5)), a mutated version of the SV40 T antigen NLS (muT=VKKGKCRPGKGYG (SEQ ID NO:2)), poly-L-lysine (MW 1, 4, and 30-70 kDa), histone H1, and hydrophilic amine-terminated dendrimers (87,340 MW) of small size (8.4 nm) available through Polysciences, Inc. (Warrington, Pa.). These scaffolds are tested for DNA condensation using a fluorescence quench assay of ethidium bromide labeled plasmid. Synthetic peptides with a C-terminus Gly-Gly-Gly-Cys-COOH (SEQ ID NO:19) linked to M9 or KNS are grafted at 1:1 to 3:1 to the activated amine-rich scaffolds. The crosslinker succinimidyl 4-(N-maleimidomethyl)cyclohexane-1 (SMCC, Pierce) is added at a final concentration of 10 mM (at 10% DMSO) to 100 μg amine rich scaffold (pH 7.2, 25 ? C for 2 hours) to react the SMCC NHS-ester to the primary amine of the scaffold. Excess SMCC and DMSO are removed by sephadex G-15 chromatography. The activated scaffold is conjugated with equimolar or 2 to 3-fold excess of the KNS or M9 peptide at 4 μC (16 hours) by maleimide reaction with the SH moiety of the C-terminal cysteine. Individual reaction species are isolated by electroelution or FLPC. […]
Substance,enhancement of β-galactosidase expression / gene transfer (confluent BAEC [1]),increase in total β-galactosidase expression over transfection with plasmid alone (confluent BAEC [1]),percent transfection: percent of cells with fluorescence ≧100 f.u. (confluent BAEC [2]),plasmid condensation (plasmid)
"CGYGPKKKRKVGG [SV40 T-antigen consensus NLS, reference compound]",A similar level of increase,–,–,–
NQSSNFGPMKGGNFGGRSSGPYGGGGQYFAKPRNQGGY-GGGC (NQSSNFGPMKGGNFGGRSSGPYGGGGQYFAKPRNQGGYGGGC; C-terminal GGGC extension) [M9 peptide],–,18.3 fold,55%,–
VKKGKCRPGKGYG [ScT],little benefit,4 fold,–,condenses plasmid effectively
polylysine [reference compound],A similar level of increase,–,–,–
